These results are taken from patent publication US8722863B2, “Solid state forms of fidaxomycin and processes for preparation thereof” (Teva Pharmaceutical Works Ltd., priority 2012, dated 2014).

In one data set the test system is Clostridium difficile. The following applies: cited from earlier work.
The nature of data set [1]: stability under extreme conditions. Type of data set: physicochemical. The text has this:
As discussed above, Form C of Fidaxomycin has advantageous properties. In particular, Form C of Fidaxomycin of the present invention can be reproduced in a high quality, i.e., chemical and polymorphical purity. The X-ray powder diffraction pattern of Form C is obtained in high crystallinity, as indicated by a high resolution PXRD pattern with relatively sharp, defined peaks. In addition, Form C is stable under extreme conditions.

Data set [2] is described as follows: stability in formulations. Format: physicochemical. The conditions noted are these: retains the anhydrous polymorph. The text has this:
The ability to retain the anhydrous polymorph provides an opportunity to improve the performance characteristic in formulation e.g. dissolution profile and bioavailability.

The nature of data set [3]: hygroscopicity test according to the European pharmacopeia 5.11. Format: physicochemical. The following applies: Ph. Eur. chapter 5.11 hygroscopicity test. The text has this:
As used herein and unless indicated otherwise, the term “non-hygroscopic” in relation to crystalline Fidaxomycin refers to less than 0.5%, and preferably less than 0.2% (w/w) absorption of water, for example atmospheric water, by the crystalline Fidaxomycin, as determined according to Ph. Eur. chapter 5.11 (“Hygroscopicity”).
As discussed above, Fidaxomycin Form Z1 has advantageous properties. In particular, the crystalline Fidaxomycin Form Z1 of the present invention is non-hygroscopic. When performing the hygroscopicity test according to the European pharmacopeia 5.11, the mass increase of Form Z1 was below about 0.2%. The advantageous of form Z1 as non-hygroscopic material provides better processing of Fidaxomycin in formulation. e.g., being less sticky and stable following granulation procedure.

In the case of `CCc1c(Cl)c(O)c(Cl)c(O)c1C(=O)O[C@H]1[C@H](O)[C@H](OC)[C@H](OC/C2=C\C=C\C[C@H](O)/C(C)=C/[C@H](CC)[C@@H](O[C@@H]3OC(C)(C)[C@@H](OC(=O)C(C)C)[C@H](O)[C@@H]3O)/C(C)=C/C(C)=C/C[C@@H]([C@@H](C)O)OC2=O)O[C@@H]1C` [Fidaxomycin, 3-(((6-Deoxy-4-O-(3,5-dichloro-2-ethyl-4,6-dihydroxybenzoyl)-2-O-methyl-β-D-mannopyranosyl)oxy)-methyl)-12(R)-[(6-deoxy-5-C-methyl-4-O-(2-methyl-1-oxopropyl)-b-D-lyxo-hexopyranosyl)oxy]-11(S)-ethyl-8(S)-hydroxy-18(S)-(1(R)-hydroxyethyl)-9,13,15-trimethyloxacyclooctadeca-3,5,9,13,15-pentaene-2-one], in the data set with Clostridium difficile, the “activity against Clostridium difficile” value is listed as “shows activity”.

For the compound `CCc1c(Cl)c(O)c(Cl)c(O)c1C(=O)O[C@H]1[C@H](O)[C@H](OC)[C@H](OC/C2=C\C=C\C[C@H](O)/C(C)=C/[C@H](CC)[C@@H](O[C@@H]3OC(C)(C)[C@@H](OC(=O)C(C)C)[C@H](O)[C@@H]3O)/C(C)=C/C(C)=C/C[C@@H]([C@@H](C)O)OC2=O)O[C@@H]1C` [Form C], the “stability under extreme conditions” value in data set [1] is “stable”.

For the compound `CCc1c(Cl)c(O)c(Cl)c(O)c1C(=O)O[C@H]1[C@H](O)[C@H](OC)[C@H](OC/C2=C\C=C\C[C@H](O)/C(C)=C/[C@H](CC)[C@@H](O[C@@H]3OC(C)(C)[C@@H](OC(=O)C(C)C)[C@H](O)[C@@H]3O)/C(C)=C/C(C)=C/C[C@@H]([C@@H](C)O)OC2=O)O[C@@H]1C` [Form Z1], in data set [2], the stability in formulations result was “excellent stability”. Further, the “mass increase (hygroscopicity)” value in data set [3] is on record as “below 0.2%”.
